Where a name gives a salt, the structure may show the parent alone.
What was measured:
[1] = system: participants diagnosed with at least moderate post-traumatic stress disorder (PTSD); assay: Double-blind, randomized, placebo-controlled clinical trial of methylone-assisted psychotherapy in PTSD; type: in vivo, human; settings: for CAPS-5 assessments: Intervening Session 1C, 2C, 3C and Study Conclusion; for daytime sleepiness as measured by ESS / change in CAPS-5 assessment / clinician-rated functional impairment score as measured by SDS / depression as measured by HAM-D: at Study Conclusion; for change in CAPS-5 assessment: vs placebo group, with psychotherapy
Experimental: A multicenter, randomized, double-blind, placebo-controlled trial is conducted to assess the efficacy and safety of methylone-assisted psychotherapy versus psychotherapy with placebo control in participants diagnosed with at least moderate post-traumatic stress disorder (PTSD).
This multicenter, randomized, double-blind, placebo-controlled trial is conducted at various sites in the United States with IRB approval from each study site. A flexible dose of methylone hydrochloride salt or placebo, followed by a supplemental half-dose unless contraindicated by patient's previous response or medical history, is also administered during the Treatment Period with psychotherapy in at least 3 blinded monthly Experimental Sessions. The Supplemental Dose extends the duration of drug effects on the participants during an Experimental Session. Methylone test groups are further subdivided into specific groups receiving only racemic methylone hydrochloride salt, S-methylone hydrochloride salt, or R-methylone hydrochloride salt. An optional Risk Evaluation and Mitigation Strategy (REMS) Protocol may be implemented for the racemic methylone, S-methylone, and placebo-groups. The Treatment Period lasts for approximately 12 weeks. During the Treatment Period, each Experimental Session is followed by three Intervening Sessions of non-drug psychotherapy. Each Experimental Session involves an overnight stay. The Primary Outcome measure, the change in Clinician Administered PTSD Scale for DSM-5 (CAPS-5), is determined by a blinded Independent Rater (IR) pool multiple times throughout the study. The study consists of separate periods for each participant. Initially, prospective participants undergo a Screening Period involving an initial eligibility assessment, a medical history intake, informed consent, and enrollment of eligible participants. Next, a Preparation Period is undertaken for enrolled participants involving medication tapering and clinical baseline assessments to confirm each participant meets enrollment criteria. As part of the Preparation Period, a detailed assessment of co-morbidities to PTSD is recorded. Participants may remain on prescribed courses of selective serotonin reuptake inhibitor (SSRI) or serotonin and norepinephrine reuptake inhibitor (SNRI) treatment. Dosages and/or frequency of administration of a prescribed SSRI or SNRI may be adjusted to fit within study parameters. Participants may be required to taper a prescribed course of medication in order to maintain eligibility within the study. The Treatment Period consists of three monthly Experimental Sessions and associated Intervening Sessions of integrative behavioral psychotherapy. The Treatment Period lasts approximately 12 weeks. Following the Treatment Period is a Follow-up Period and Study Conclusion. During the Follow-up Period and Study Conclusion, participants complete 4 weeks with no study visits, followed by a Study Conclusion visit.
This study compares the effects of three blinded Experimental Sessions of psychotherapy in combination with flexible doses of methylone or placebo administered as described below. Non-drug preparatory and intervening psychotherapy sessions are also included. Patient's weight is determined for dosage calculation. Initial dose is 100 mg unless this will result in a dosage of less than 1.5 mg/kg of patient weight. Initial dose thereby adjusted upward in 25 mg increments to deliver the lowest dose possible of at least 1.5 mg/kg of patient weight. Initial dose for Experimental Session 2 and 3 is cumulative dose calculated by adding the initial dose plus REMS protocol dose used the previous Experimental Session for each patient.
Randomization occurs prior to the initiation of Experimental Session 1. Each participant is provided the next randomized number in a sequence by a blinded study monitor. […]

[2] = Solubility screen of methylone hydrochloride in solvents; type: physicochemical; settings: thermodynamic from solid, visual
Experimental: The experiments were carried out by adding the test solvent in aliquots to weighed portions of solid. Whether dissolution had occurred was judged by visual inspection after addition of each solvent aliquot. Solubility numbers recorded in Table 4 were calculated by dividing the weight of the sample by the total amount of solvent used to dissolve the sample. The actual solubilities may be greater than the numbers calculated because of the use of solvent aliquots that were too large or because of slow dissolution rates. All solubility measurements were carried out at room temperature unless noted otherwise.

[3] = Plasma and brain concentration at end of zero maze study; type: in vivo, rat; settings: end of zero maze study, 5, 15, 30 mg/kg ip, FIG. 68 and FIG. 69
Experimental: Terminal sampling. At the end of the study, terminal blood was collected from 2 of the vehicle treated rats (>5 mL) and from all methylone HCl treated rats (500 uL) by CP under CO2. Blood samples were placed into Eppendorf tubes on ice containing 22 μL/mL blood (vehicle treated) or 11 μL EDTA (93 mg/mL) (Methylone HCl treated rats) and gently mixed. After no longer than 30 min, blood samples were centrifuged at 10,000 rpm×3 min and plasma samples (>2 mL (vehicle) or 2×100 μL (Methylone HCl treated) placed into Eppendorf tubes (Vehicle) or 96 well plates on dry ice. Immediately after blood sampling, brains were excised, rinsed in saline, blotted, weighed and snap-frozen in liquid N2. All samples were stored at −20° C. until dispatched on dry ice for analysis.
Terminal sampling. At the end of the study, terminal blood was collected from 2 of the vehicle treated rats (>5 mL) and from all S-methylone HCl treated rats (500 uL) by CP under CO2. Blood samples were placed into Eppendorf tubes on ice containing 22 μL/mL blood (vehicle treated) or 11 μL EDTA (93 mg/mL) (S-methylone HCl treated rats) and gently mixed. […]

Structure (SMILES)	CAPS-5 assessments ([1]; vs placebo-treated controls)	daytime sleepiness as measured by ESS [1]	change in CAPS-5 assessment [1]	clinician-rated functional impairment score as measured by SDS ([1]; vs placebo-treated controls)	depression as measured by HAM-D ([1]; vs placebo-treated controls)	solubility ([2]; acetonitrile, organic solvent or mixture, ACN, room temperature) [µg/mL]	solubility ([2]; chloroform, organic solvent or mixture, CHCl3, room temperature) [µg/mL]	solubility ([2]; ethanol, organic solvent or mixture, EtOH, room temperature) [µg/mL]	solubility ([2]; ethyl acetate (wet), organic solvent or mixture, EtOAc (wet), room temperature) [µg/mL]	solubility ([2]; methanol, organic solvent or mixture, MeOH, room temperature) [µg/mL]	solubility ([2]; methanol/chloroform 50/50, organic solvent or mixture, MeOH/CHCl3 50/50, room temperature) [µg/mL]	solubility ([2]; organic solvent or mixture, Acetone, room temperature) [µg/mL]	solubility ([2]; organic solvent or mixture, DMF, room temperature) [µg/mL]	solubility ([2]; organic solvent or mixture, THF, room temperature) [µg/mL]	solubility ([2]; water, H2O, room temperature) [µg/mL]	concentration in plasma and brain [3]	adverse anxiogenic incidents ([1]; PTSD participants, vs placebo-treated controls)	total dosage of drug needed for significant mean reduction in CAPS-5, compared to racemic methylone-treated subgroup ([1]; PTSD participants)
CNC(C)C(=O)c1ccc2c(c1)OCO2 (racemic) [(rac)-Methylone Hydrochloride, 3,4-methylenedioxy-N-methylcathinone hydrochloride]	Significant improvements in CAPS-5 assessments	a significant improvement in lessening daytime sleepiness	a significant mean reduction in CAPS-5 assessment	a significant improvement in clinician-rated functional impairment score	a significant improvement depression	< 1000	< 1000	8000	9000	48000	45000	< 1000	5000	< 1000	47000	increased in both brain and plasma at the higher doses		
CN[C@H](C)C(=O)c1ccc2c(c1)OCO2 [(R)-Methylone Hydrochloride, (R)-1-(Benzo[d][1,3]dioxol-5-yl)-2-(methylamino)propan-1-one Hydrochloride]	Significant improvements in CAPS-5 assessments	a significant improvement in lessening daytime sleepiness	a significant mean reduction in CAPS-5 assessment	a significant improvement in clinician-rated functional impairment score	a significant improvement depression												without a significant increase in adverse anxiogenic incidents	
CN[C@@H](C)C(=O)c1ccc2c(c1)OCO2 [(S)-Methylone Hydrochloride, (S)-1-(Benzo[d][1,3]dioxol-5-yl)-2-(methylamino)propan-1-one Hydrochloride]	Significant improvements in CAPS-5 assessments	a significant improvement in lessening daytime sleepiness	a significant mean reduction in CAPS-5 assessment	a significant improvement in clinician-rated functional impairment score	a significant improvement depression													lower total dosage of drug

Source: patent US20240294488A1, “ISOTOPOLOGES, SALTS, CRYSTALLINE FORMS, STEREOISOMERS, OF METHYLONE AND ETHYLONE AND METHODS OF USE THEREOF” (Terran Biosciences Inc., priority 2021, published 2024)
